The target in experiment [1] is Cbl-b (Homo sapiens (Human), UniProt Q13191). In words: Cbl-b LCK Ub TR-FRET assay (Cbl-b Lck HTRF). It counts as biochemical. To be noted: for IC50: Cbl-b LCK Ub TR-FRET; for fold-selectivity (Cbl-b over C-cbl): ratio C-cbl Lck HTRF IC50 / Cbl-b Lck HTRF IC50. The method, boiled down:
(§1)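 After the ubiquitination reaction, detection mixture was added and plates incubated 20 min at room temperature before reading. IC50 values were calculated with wells lacking LCK as the low control and DMSO as the high control.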
On the technique in general: In TR-FRET formats the signal depends on donor and acceptor labels being close together.

Experiment [2] deals with c-Cbl (Homo sapiens (Human), UniProt P22681). In words: C-Cbl LCK Ub TR-FRET assay (C-cbl Lck HTRF). The class given is biochemical. The method, boiled down: as §1
Experiment [3] concerns the target Human Cbl-b (residues 40-426) (Homo sapiens (Human), UniProt Q13191). In words: Cbl-b SPR assay. The class given is binding. The following applies: for Fold of selectivity: C-cbl SPR Kd vs Cbl-b SPR Kd; for Kd: SPR, 20° C. The method, boiled down: (§2)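 Values derive from a 1:1 model fitted to multicycle kinetics on captured protein (1300-1500 RU), using six 2-fold concentrations, 60 s contact and dissociation of 120-1200 s. In the chaser format, kd comes from a single-exponential fit of % site occupancy over time.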

Experiment [4] has as its target c-Cbl (residues 47-435) (Homo sapiens (Human), UniProt P22681). In words: c-Cbl SPR assay. The class given is binding. To be noted: 20° C. The method, boiled down: as §2

Consider 14 compounds from patent US12187709B2 (Genentech, Inc., priority 2021, dated 2025).

Chain of Cbl-b (Q13191 40-426): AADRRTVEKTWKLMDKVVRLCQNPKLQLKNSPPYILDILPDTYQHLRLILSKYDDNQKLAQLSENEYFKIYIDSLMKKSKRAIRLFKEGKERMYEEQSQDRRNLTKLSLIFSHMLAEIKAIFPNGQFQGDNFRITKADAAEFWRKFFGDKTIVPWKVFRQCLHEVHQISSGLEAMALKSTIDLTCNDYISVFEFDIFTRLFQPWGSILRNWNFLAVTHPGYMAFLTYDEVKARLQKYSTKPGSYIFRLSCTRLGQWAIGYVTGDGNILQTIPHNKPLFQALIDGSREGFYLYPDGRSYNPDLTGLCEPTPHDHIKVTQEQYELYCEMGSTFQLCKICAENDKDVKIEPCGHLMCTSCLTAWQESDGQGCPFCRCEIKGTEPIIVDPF
Chain of Human Cbl-b (residues 40-426) (Q13191 40-426): as above
Chain of c-Cbl (residues 47-435) (P22681 47-435): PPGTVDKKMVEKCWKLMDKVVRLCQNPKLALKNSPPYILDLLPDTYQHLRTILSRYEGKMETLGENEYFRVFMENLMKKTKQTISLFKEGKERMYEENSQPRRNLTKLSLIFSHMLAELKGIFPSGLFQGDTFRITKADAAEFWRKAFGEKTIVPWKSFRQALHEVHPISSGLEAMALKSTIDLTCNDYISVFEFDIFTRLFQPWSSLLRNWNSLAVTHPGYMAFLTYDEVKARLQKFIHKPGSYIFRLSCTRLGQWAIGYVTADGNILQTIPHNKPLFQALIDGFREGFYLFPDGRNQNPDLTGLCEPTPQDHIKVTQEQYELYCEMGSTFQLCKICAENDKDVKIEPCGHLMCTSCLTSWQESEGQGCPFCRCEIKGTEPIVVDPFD
Chain of c-Cbl (P22681 47-435): as above

With `Cn1cnnc1[C@]1(c2cc(NC3CC(F)(F)C3)nc(N3Cc4c(cc(CNC5(C)CCC5)cc4C(F)(F)F)C3=O)c2)C[C@@H](C)C1` [Compound 48, 2-(6-((3,3-difluorocyclobutyl)amino)-4-((1r,3r)-3-methyl-1-(4-methyl-4H-1,2,4-triazol-3-yl)cyclobutyl)pyridin-2-yl)-6-(((1-methylcyclobutyl)amino)methyl)-4-(trifluoromethyl)isoindolin-1-one], in experiment [1], the IC50 was 10 nM and the “fold-selectivity (Cbl-b over C-cbl)” value is on record as “(1.5x)”. This compound showed an IC50 in experiment [2] of 15 nM. Besides, in experiment [3], the Fold of selectivity turned out to be 3.0× and the Kd is 3.8 nM. The same compound displayed an equilibrium dissociation constant (Kd) in experiment [4] of 11 nM.
For the compound `Cn1cnnc1[C@]1(c2cc(NC3CC(F)(F)C3)nc(N3Cc4c(cc(CNC5(C)CCC5)cc4C(F)(F)F)C3=O)c2)C[C@H](C)C1` [Compound 49, 2-(6-((3,3-difluorocyclobutyl)amino)-4-((1s,3s)-3-methyl-1-(4-methyl-4H-1,2,4-triazol-3-yl)cyclobutyl)pyridin-2-yl)-6-(((1-methylcyclobutyl)amino)methyl)-4-(trifluoromethyl)isoindolin-1-one], in experiment [1], the IC50 came out at 14 nM and the “fold-selectivity (Cbl-b over C-cbl)” value is given as “(1.4x)”. Further, in experiment [2], half-maximal inhibition (IC50) required 19.6 nM. In experiment [3], this compound gave a Fold of selectivity of 7.0× and a dissociation constant (Kd) of 2.2 nM. The dissociation constant Kd in experiment [4] was found to be 16 nM.
On to `Cn1cnnc1C1(c2cccc(N3Cc4c(cc(CNC5(C)CCC5)cc4C(F)(F)F)C3=O)c2)COC1` [Compound 58, 2-(3-(3-(4-methyl-4H-1,2,4-triazol-3-yl)oxetan-3-yl)phenyl)-6-(((1-methylcyclobutyl)amino)methyl)-4-(trifluoromethyl)isoindolin-1-one], for which, in experiment [1], half-maximal inhibition (IC50) required 280 nM and the “fold-selectivity (Cbl-b over C-cbl)” value was “(2.0x)”. Also, half-maximal inhibition in experiment [2] (IC50) required 560 nM. In experiment [3], this compound registered a Fold of selectivity of 3.1× and a Kd of 140 nM. Also, binding in experiment [4] was characterised by a dissociation constant (Kd) of 440 nM.
Regarding `Cn1cnnc1C1(c2cccc(N3Cc4c(cc(CNC5(C)CCC5)cc4C(F)(F)F)C3=O)c2)CC(F)(F)C1` [Compound 61, 2-(3-(3,3-difluoro-1-(4-methyl-4H-1,2,4-triazol-3-yl)cyclobutyl)phenyl)-6-(((1-methylcyclobutyl)amino)methyl)-4-(trifluoromethyl)isoindolin-1-one], in experiment [1], 15 nM corresponded to half-maximal inhibition (IC50) and the “fold-selectivity (Cbl-b over C-cbl)” value is “(1.7x)”. This compound also gave a half-maximal inhibitory concentration (IC50) in experiment [2] of 25.5 nM. Besides, in experiment [3], the Fold of selectivity came out at 5.2× and binding was characterised by a dissociation constant (Kd) of 3.7 nM. Moreover, in experiment [4], binding was characterised by a dissociation constant (Kd) of 20 nM.
Consider `Cn1cnnc1C1(c2cccc(N3Cc4c(cc(CNC5(C)CCC5)cc4C(F)(F)F)C3=O)c2)CC2(COC2)C1` [Compound 65, 2-(3-(6-(4-methyl-4H-1,2,4-triazol-3-yl)-2-oxaspiro[3.3]heptan-6-yl)phenyl)-6-(((1-methylcyclobutyl)amino)methyl)-4-(trifluoromethyl)isoindolin-1-one], for which the half-inhibitory concentration (IC50) in experiment [1] was found to be 20 nM; in experiment [2], 62 nM. For the same compound, the “fold-selectivity (Cbl-b over C-cbl)” value in experiment [1] was “(3.1x)”. The same compound returned a Fold of selectivity in experiment [3] of 19×. Also, the Kd in experiment [3] was 3.7 nM; in experiment [4], 68 nM.
As for `Cn1cnnc1[C@]1(c2cc(NC3CCC3)nc(N3Cc4c(cc(CNC5(C)CCC5)cc4C(F)(F)F)C3=O)c2)C[C@H](C)C1` [Compound 67, 2-(6-(cyclobutylamino)-4-((1S,3S)-3-methyl-1-(4-methyl-4H-1,2,4-triazol-3-yl)cyclobutyl)pyridin-2-yl)-6-(((1-methylcyclobutyl)amino)methyl)-4-(trifluoromethyl)isoindolin-1-one], the IC50 in experiment [1] amounted to 6.5 nM; in experiment [2], 5.9 nM. Further, the “fold-selectivity (Cbl-b over C-cbl)” value in experiment [1] is “(0.9x)”. The compound further showed a Fold of selectivity in experiment [3] of 1.5×. Further, the equilibrium dissociation constant (Kd) in experiment [3] turned out to be 0.36 nM; in experiment [4], 0.53 nM.
Take `Cn1cnnc1[C@]1(c2cc(NC3CCC3)nc(N3Cc4c(cc(CNC5(C)CCC5)cc4C(F)(F)F)C3=O)c2)C[C@@H](C)C1` [Compound 68, 2-(6-(cyclobutylamino)-4-((1R,3R)-3-methyl-1-(4-methyl-4H-1,2,4-triazol-3-yl)cyclobutyl)pyridin-2-yl)-6-(((1-methylcyclobutyl)amino)methyl)-4-(trifluoromethyl)isoindolin-1-one]: the IC50 in experiment [1] was 8.5 nM; in experiment [2], 7.1 nM. Further, the “fold-selectivity (Cbl-b over C-cbl)” value in experiment [1] is on record as “(0.8x)”. In addition, the Fold of selectivity in experiment [3] amounted to 4.3×. In addition, the Kd in experiment [3] stood at 0.24 nM; in experiment [4], 1 nM.
On to `CO[C@H]1C[C@@](c2cc(NC3CCCC3)nc(N3Cc4c(cc(CNC5(C)CCC5)cc4C(F)(F)F)C3=O)c2)(c2nncn2C)C1` [Compound 69, 2-(6-(cyclopentylamino)-4-((1S,3S)-3-methoxy-1-(4-methyl-4H-1,2,4-triazol-3-yl)cyclobutyl)pyridin-2-yl)-6-(((1-methylcyclobutyl)amino)methyl)-4-(trifluoromethyl)isoindolin-1-one], for which, in experiment [1], the concentration for half-maximal inhibition (IC50) was determined as 11 nM and the “fold-selectivity (Cbl-b over C-cbl)” value is “(4.9x)”. In addition, in experiment [2], the 50% inhibitory concentration (IC50) was found to be 54 nM. In experiment [3], this compound displayed a Fold of selectivity of 6.9× and a Kd of 3.3 nM. The compound also came in with a dissociation constant (Kd) in experiment [4] of 23 nM.
For `CO[C@H]1C[C@](c2cc(NC3CCCC3)nc(N3Cc4c(cc(CNC5(C)CCC5)cc4C(F)(F)F)C3=O)c2)(c2nncn2C)C1` [Compound 70, 2-(6-(cyclopentylamino)-4-((1R,3R)-3-methoxy-1-(4-methyl-4H-1,2,4-triazol-3-yl)cyclobutyl)pyridin-2-yl)-6-(((1-methylcyclobutyl)amino)methyl)-4-(trifluoromethyl)isoindolin-1-one], in experiment [1], the midpoint of inhibition, the IC50, lay at 17 nM and the “fold-selectivity (Cbl-b over C-cbl)” value was “(9.3x)”. Moreover, in experiment [2], inhibition was half-maximal at 158 nM (IC50). In experiment [3], the Fold of selectivity came to 20× and binding was put at a Kd of 11 nM. In experiment [4], the Kd was found to be 220 nM.
Turning to `CC(C)[C@H]1CN(C)CCN1Cc1cc2c(c(C(F)(F)F)c1)CN(c1cc([C@]3(c4nncn4C)C[C@@H](C)C3)cc(OC3CCCC3)n1)C2=O` [Compound 72, 2-(6-(cyclopentyloxy)-4-((1S,3R)-3-methyl-1-(4-methyl-4H-1,2,4-triazol-3-y)cyclobutyl)pyridin-2-yl)-6-(((S)-2-isopropyl-4-methylpiperazin-1-yl)methyl)-4-(trifluoromethyl)isoindolin-1-one], in experiment [1], the concentration for half-maximal inhibition (IC50) amounted to 2400 nM and the “fold-selectivity (Cbl-b over C-cbl)” value was “(2.4x)”. The same compound returned a 50% inhibitory concentration (IC50) in experiment [2] of 5300 nM. In experiment [3], this compound had a Fold of selectivity of 4.5× and a dissociation constant Kd of 0.4 nM. The compound further returned a Kd in experiment [4] of 1.8 nM.
In the case of `CC(C)[C@H]1CN(C)CCN1Cc1cc2c(c(C(F)(F)F)c1)CN(c1cc([C@]3(c4nncn4C)C[C@@H](C)C3)cc(NC3CCCC3)n1)C2=O` [Compound 74, 2-(6-(cyclopentylamino)-4-((1S,3R)-3-methyl-1-(4-methyl-4H-1,2,4-triazol-3-yl)cyclobutyl)pyridin-2-yl)-6-(((S)-2-isopropyl-4-methylpiperazin-1-yl)methyl)-4-(trifluoromethyl)isoindolin-1-one], in experiment [1], the IC50 was 15 nM and the “fold-selectivity (Cbl-b over C-cbl)” value is given as “(1.5x)”. The IC50 in experiment [2] came out at 23 nM. In experiment [3], this compound gave a Fold of selectivity of 8.7× and a dissociation constant Kd of 8.3 nM. In addition, binding in experiment [4] was put at a Kd of 72 nM.
`Cn1cnnc1[C@]1(c2cccc(N3Cc4c(cc(CNC5(C)CCC5)cc4C(F)(F)F)C3=O)c2)C[C@H](CC#N)C1` [Compound 88, 2-((1s,3s)-3-(4-methyl-4H-1,2,4-triazol-3-yl)-3-(3-(6-(((1-methylcyclobutyl)amino)methyl)-1-oxo-4-(trifluoromethyl)isoindolin-2-yl)phenyl)-cyclobutyl)acetonitrile]: in experiment [1], the IC50 is 12 nM and the “fold-selectivity (Cbl-b over C-cbl)” value was 1.0x. In addition, inhibition in experiment [2] was half-maximal at 12 nM (IC50). For the same compound, in experiment [3], the Fold of selectivity was found to be 4.1× and the equilibrium dissociation constant (Kd) was found to be 21 nM. In experiment [4], this compound registered a Kd of 87 nM.
As for `Cn1cnnc1[C@]1(c2cccc(N3Cc4c(cc(CNC5(C)CCC5)cc4C(F)(F)F)C3=O)c2)C[C@@H](CC#N)C1` [Compound 89, 2-((1r,3r)-3-(4-methyl-4H-1,2,4-triazol-3-yl)-3-(3-(6-(((1-methylcyclobutyl)amino)methyl)-1-oxo-4-(trifluoromethyl)isoindolin-2-yl)phenyl)-cyclobutyl)acetonitrile], in experiment [1], the half-inhibitory concentration (IC50) is 41 nM and the “fold-selectivity (Cbl-b over C-cbl)” value is on record as 2.4x. The compound also showed an IC50 in experiment [2] of 98 nM. In experiment [3], the Fold of selectivity stood at 6.6× and the Kd was 0.6 nM. In experiment [4], this compound returned a Kd of 4 nM.
Consider `CCNc1cc(N2Cc3c(cc(CNC4(C)CCC4)cc3C(F)(F)F)C2=O)cc([C@]2(c3nncn3C)C[C@H](C)C2)c1` [Compound 90, 2-(3-(ethylamino)-5-((1r,3r)-3-methyl-1-(4-methyl-4H-1,2,4-triazol-3-yl)cyclobutyl)phenyl)-6-(((1-methylcyclobutyl)amino)methyl)-4-(trifluoromethyl)isoindolin-1-one], for which, in experiment [1], the IC50 was 7.8 nM and the “fold-selectivity (Cbl-b over C-cbl)” value is listed as 0.83x. The compound also showed a half-maximal inhibitory concentration (IC50) in experiment [2] of 6.6 nM. In experiment [3], the Fold of selectivity came out at 2.0× and the Kd is 0.2 nM. The Kd in experiment [4] amounted to 0.4 nM.

A word on the IC50: it is the concentration that gives 50% inhibition. What is called Kd is the concentration at which binding is half-saturated.
